Active and inactive are the calls of the source. No cut-off for these calls is given here. Residues, ends and D or L forms follow the SMILES beside them.
How the values were obtained:
Plasma = experiment: Anticoagulant activity in human citreated plasma assessed as prolongation of fibrinogen clotting time; type: functional, cell-free
Trypsin (Homo sapiens) [1] = biological target: T1, Trypsin (Homo sapiens) (UniProt P07477+P07478+P35030); experiment: Inhibition of human trypsin at 100 uM; type: protein assay
[2] = biological target: Urokinase-type plasminogen activator (Homo sapiens) (UniProt P00749); experiment: Inhibition of human urokinase at 1 uM
Homo sapiens [3] = species: Homo sapiens; experiment: Inhibition of amidolytic activity of human alpha-thrombin after 60 mins by RP-HPLC
[4] = biological target: Coagulation factor X (Homo sapiens) (UniProt P00742); experiment: Inhibition of human factor 10a at 1 uM
Coagulation factor X (Homo sapiens), sequence (P00742 41-179 limits assumed): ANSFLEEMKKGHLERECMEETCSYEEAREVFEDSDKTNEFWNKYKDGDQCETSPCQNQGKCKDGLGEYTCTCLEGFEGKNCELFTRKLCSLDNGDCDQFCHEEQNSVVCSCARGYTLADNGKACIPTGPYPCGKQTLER
Coagulation factor X (Homo sapiens), sequence (P00742 235-488 limits assumed): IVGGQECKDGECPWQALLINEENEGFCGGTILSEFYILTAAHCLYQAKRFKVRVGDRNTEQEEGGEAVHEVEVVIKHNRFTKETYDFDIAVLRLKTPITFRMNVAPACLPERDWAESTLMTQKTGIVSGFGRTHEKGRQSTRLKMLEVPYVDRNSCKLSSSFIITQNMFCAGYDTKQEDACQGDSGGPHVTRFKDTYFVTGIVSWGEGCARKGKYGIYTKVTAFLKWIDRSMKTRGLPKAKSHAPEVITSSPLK

Homo sapiens [5] = species: Homo sapiens; experiment: Inhibition of amidolytic activity of human alpha-thrombin upto 24 hrs by RP-HPLC
[6] = biological target: T2, Coagulation factor XII (Homo sapiens) (UniProt P00748); experiment: Inhibition of human factor 12a at 1 uM
T2 sequence (whole entry): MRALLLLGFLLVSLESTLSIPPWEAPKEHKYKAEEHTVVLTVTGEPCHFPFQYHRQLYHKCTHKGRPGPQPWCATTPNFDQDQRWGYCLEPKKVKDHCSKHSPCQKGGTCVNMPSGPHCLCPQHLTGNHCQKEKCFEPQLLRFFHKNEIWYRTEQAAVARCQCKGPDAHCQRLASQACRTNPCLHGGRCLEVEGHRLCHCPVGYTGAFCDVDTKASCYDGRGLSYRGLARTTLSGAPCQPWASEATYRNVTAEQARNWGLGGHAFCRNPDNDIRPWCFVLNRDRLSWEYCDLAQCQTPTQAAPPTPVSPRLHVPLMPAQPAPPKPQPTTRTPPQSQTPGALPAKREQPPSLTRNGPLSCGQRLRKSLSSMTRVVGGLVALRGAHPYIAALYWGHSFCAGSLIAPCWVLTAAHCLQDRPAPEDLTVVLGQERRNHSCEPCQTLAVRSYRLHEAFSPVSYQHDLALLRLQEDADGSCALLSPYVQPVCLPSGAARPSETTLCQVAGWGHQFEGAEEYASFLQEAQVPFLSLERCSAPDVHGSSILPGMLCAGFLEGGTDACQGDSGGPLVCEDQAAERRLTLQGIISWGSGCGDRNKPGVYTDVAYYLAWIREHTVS

[7] = biological target: Coagulation factor XI (Homo sapiens) (UniProt P03951); experiment: Inhibition of human factor 11a at 1 uM
Coagulation factor XI (Homo sapiens), sequence (P03951 19-387 limits assumed): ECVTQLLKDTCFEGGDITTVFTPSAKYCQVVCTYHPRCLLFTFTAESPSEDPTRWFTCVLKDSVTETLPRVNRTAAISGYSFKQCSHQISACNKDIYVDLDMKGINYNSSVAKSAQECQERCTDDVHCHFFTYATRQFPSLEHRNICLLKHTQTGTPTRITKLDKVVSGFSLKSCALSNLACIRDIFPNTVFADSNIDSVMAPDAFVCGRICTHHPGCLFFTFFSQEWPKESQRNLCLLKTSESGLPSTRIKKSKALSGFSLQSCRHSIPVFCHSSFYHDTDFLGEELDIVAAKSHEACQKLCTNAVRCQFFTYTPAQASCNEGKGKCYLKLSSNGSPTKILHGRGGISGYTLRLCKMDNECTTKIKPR
Coagulation factor XI (Homo sapiens), sequence (P03951 388-625 limits assumed): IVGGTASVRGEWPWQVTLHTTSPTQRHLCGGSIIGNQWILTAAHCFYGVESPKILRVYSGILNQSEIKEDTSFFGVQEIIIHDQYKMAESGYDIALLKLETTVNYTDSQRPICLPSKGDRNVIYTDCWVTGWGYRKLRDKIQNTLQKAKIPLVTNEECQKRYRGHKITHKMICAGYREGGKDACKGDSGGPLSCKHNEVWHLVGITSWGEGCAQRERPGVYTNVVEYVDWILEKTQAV

[8] = biological target: Coagulation factor XI (Homo sapiens) (UniProt P03951); experiment: Inhibition of human factor 11a at 100 uM
Homo sapiens [9] = species: Homo sapiens; experiment: Inhibition of human alpha-thrombin at 1 uM
[10] = biological target: Plasma kallikrein (Homo sapiens) (UniProt P03952); experiment: Inhibition of human kallikrein at 1 uM
Plasma kallikrein (Homo sapiens), sequence (P03952 20-390 limits assumed): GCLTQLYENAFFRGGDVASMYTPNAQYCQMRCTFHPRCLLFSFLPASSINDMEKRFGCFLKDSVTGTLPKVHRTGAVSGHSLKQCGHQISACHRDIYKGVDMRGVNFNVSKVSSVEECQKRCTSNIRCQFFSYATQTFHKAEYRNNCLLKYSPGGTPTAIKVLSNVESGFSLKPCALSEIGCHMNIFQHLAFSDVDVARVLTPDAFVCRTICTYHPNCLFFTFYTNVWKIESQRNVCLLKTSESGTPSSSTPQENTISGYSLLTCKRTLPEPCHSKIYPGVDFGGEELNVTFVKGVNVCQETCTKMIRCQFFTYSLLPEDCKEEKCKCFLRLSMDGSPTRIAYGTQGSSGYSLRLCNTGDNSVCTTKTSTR
Plasma kallikrein (Homo sapiens), sequence (P03952 391-638 limits assumed): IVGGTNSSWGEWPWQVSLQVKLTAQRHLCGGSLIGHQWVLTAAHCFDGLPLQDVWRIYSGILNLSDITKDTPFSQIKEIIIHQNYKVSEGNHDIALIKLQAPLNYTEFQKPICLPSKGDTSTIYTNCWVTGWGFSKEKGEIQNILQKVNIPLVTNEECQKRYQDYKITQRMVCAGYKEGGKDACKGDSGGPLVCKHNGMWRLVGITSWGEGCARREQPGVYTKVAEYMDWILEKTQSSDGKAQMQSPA

[11] = biological target: T3, Coagulation factor VII (Homo sapiens) (UniProt P08709); experiment: Inhibition of human factor 7a at 1 uM
T3 sequence (whole entry): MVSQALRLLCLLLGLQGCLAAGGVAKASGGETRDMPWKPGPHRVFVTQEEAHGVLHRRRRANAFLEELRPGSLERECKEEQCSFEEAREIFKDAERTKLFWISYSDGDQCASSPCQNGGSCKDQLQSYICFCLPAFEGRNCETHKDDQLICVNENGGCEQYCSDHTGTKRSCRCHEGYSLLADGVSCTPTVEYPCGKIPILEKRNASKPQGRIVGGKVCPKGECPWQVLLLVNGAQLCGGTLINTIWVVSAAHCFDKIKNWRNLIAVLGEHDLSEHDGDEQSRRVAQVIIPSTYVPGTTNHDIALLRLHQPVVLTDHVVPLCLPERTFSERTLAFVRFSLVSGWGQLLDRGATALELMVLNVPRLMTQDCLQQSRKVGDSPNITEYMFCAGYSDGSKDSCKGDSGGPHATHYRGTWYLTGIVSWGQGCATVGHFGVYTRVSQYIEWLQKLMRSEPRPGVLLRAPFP

Trypsin (Homo sapiens) [12] = biological target: T1, Trypsin (Homo sapiens); experiment: Inhibition of human trypsin at 1 uM; type: protein assay
[13] = biological target: Vitamin K-dependent protein C (Homo sapiens) (UniProt P04070); experiment: Inhibition of human Activated protein C at 1 uM
Vitamin K-dependent protein C (Homo sapiens), sequence (P04070 43-197 limits assumed): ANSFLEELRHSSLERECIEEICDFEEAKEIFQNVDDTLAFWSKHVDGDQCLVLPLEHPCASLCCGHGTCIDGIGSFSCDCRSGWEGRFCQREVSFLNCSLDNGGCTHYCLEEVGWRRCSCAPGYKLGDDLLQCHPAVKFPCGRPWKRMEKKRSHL
Vitamin K-dependent protein C (Homo sapiens), sequence (P04070 212-461 limits assumed): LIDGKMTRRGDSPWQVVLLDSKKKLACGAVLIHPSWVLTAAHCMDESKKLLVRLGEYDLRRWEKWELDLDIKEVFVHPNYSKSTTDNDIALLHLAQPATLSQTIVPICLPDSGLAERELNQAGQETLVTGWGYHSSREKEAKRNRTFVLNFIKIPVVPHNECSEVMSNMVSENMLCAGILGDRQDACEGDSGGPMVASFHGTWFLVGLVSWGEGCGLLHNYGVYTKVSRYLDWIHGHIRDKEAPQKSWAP

Homo sapiens [14] = species: Homo sapiens; experiment: Inhibition of human chymotrypsin at 1 uM
[15] = biological target: Coagulation factor IX (Homo sapiens) (UniProt P00740); experiment: Inhibition of human factor 9a at 1 uM
Coagulation factor IX (Homo sapiens), sequence (P00740 47-191 limits assumed): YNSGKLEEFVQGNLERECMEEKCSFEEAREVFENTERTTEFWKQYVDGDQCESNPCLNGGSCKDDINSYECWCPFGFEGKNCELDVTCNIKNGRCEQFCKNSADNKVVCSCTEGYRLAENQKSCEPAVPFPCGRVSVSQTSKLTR
Coagulation factor IX (Homo sapiens), sequence (P00740 227-461 limits assumed): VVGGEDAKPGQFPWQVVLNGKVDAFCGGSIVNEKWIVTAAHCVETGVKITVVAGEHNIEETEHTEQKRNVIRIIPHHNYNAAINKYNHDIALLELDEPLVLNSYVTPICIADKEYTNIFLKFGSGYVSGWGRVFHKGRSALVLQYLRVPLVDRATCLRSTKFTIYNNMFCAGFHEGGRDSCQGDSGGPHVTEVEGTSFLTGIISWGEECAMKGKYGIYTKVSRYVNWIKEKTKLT

[16] = biological target: Plasminogen (Homo sapiens) (UniProt P00747); experiment: Inhibition of human plasmin at 100 uM
Plasminogen (Homo sapiens), sequence (P00747 97-580 limits assumed): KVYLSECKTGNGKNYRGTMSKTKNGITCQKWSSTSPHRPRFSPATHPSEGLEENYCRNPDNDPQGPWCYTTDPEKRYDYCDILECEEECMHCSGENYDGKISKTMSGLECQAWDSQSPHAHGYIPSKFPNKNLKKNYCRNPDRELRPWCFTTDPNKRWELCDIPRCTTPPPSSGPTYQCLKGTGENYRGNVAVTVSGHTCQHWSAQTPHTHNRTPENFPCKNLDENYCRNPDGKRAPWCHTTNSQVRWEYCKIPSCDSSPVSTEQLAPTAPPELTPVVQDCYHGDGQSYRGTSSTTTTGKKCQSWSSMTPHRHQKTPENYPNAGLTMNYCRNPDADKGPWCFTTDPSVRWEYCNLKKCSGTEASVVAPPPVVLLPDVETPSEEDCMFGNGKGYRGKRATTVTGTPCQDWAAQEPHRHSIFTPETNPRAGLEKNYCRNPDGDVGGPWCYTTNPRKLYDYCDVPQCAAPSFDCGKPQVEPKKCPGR
Plasminogen (Homo sapiens), sequence (P00747 581-810 limits assumed): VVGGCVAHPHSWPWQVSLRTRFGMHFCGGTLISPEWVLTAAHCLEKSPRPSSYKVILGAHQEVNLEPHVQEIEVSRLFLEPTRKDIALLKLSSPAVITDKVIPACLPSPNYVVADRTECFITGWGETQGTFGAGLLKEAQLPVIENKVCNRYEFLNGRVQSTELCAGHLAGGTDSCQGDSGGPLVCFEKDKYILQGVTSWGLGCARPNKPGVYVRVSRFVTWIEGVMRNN

[17] = biological target: Tissue-type plasminogen activator (Homo sapiens) (UniProt P00750); experiment: Inhibition of human tissue plasminogen activator at 1 uM
Tissue-type plasminogen activator (Homo sapiens), sequence (P00750 36-562 limits assumed): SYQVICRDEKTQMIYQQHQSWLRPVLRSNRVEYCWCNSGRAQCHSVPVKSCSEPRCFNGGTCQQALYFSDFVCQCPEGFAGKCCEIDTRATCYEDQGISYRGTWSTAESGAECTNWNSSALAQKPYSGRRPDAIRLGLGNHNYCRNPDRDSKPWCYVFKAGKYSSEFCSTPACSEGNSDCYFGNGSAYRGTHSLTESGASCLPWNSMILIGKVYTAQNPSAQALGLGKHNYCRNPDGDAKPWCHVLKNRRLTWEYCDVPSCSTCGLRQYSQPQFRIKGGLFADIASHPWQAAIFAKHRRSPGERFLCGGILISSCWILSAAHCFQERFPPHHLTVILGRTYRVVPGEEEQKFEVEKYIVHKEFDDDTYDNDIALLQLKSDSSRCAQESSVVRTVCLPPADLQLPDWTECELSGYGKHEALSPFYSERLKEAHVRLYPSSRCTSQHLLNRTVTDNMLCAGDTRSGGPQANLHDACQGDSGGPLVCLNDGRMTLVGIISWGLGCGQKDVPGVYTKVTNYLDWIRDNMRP

[18] = biological target: Plasminogen (Homo sapiens) (UniProt P00747); experiment: Inhibition of human plasmin at 1 uM

CC[C@H](C)[C@H](NC(=O)[C@H](C)NC(=O)[C@H](CCC(=O)O)NC(=O)[C@H](Cc1ccccc1)NC(=O)[C@H](CC(=O)O)NC(=O)[C@H](Cc1ccccc1)NC(=O)[C@@H]1CCCN1C(=O)[C@@H]1CCCN1C(=O)[C@H](C)N)C(=O)N1CCC[C@H]1C(=O)N[C@@H](CCC(=O)O)C(=O)N[C@@H](CCC(=O)O)C(=O)N[C@@H](Cc1ccc(O)cc1)C(=O)N[C@@H](CC(C)C)C(=O)N[C@@H](CC(=O)O)C(=O)N[C@@H](CC(=O)O)C(=O)N[C@@H](CCC(=O)O)C(=O)N[C@@H](CO)C(=O)O (H-APPFDFEAIPEEYLDDES-OH)
Activity (Plasma): Dose-dependent effect

CC[C@H](C)[C@H](NC(=O)[C@H](C)NC(=O)[C@H](CCC(=O)O)NC(=O)[C@H](Cc1ccccc1)NC(=O)[C@H](CC(=O)O)NC(=O)[C@H](Cc1ccccc1)NC(=O)[C@@H]1CCCN1C(=O)[C@@H]1CCCN1C(=O)[C@H](C)NC(=O)[C@@H](NC(=O)[C@H](CCCCN)NC(=O)[C@H](Cc1cnc[nH]1)NC(=O)[C@H](CCSC)NC(=O)[C@H](CCCCN)NC(=O)[C@@H]1CCCN1C(=O)[C@H](CCC(=O)O)NC(=O)[C@H](C)NC(=O)[C@@H](NC(=O)[C@H](CC(=O)O)NC(=O)CNC(=O)[C@H](CCC(N)=O)NC(=O)[C@H](CC(=O)O)NC(=O)[C@@H](N)CO)C(C)C)[C@@H](C)O)C(=O)N1CCC[C@H]1C(=O)N[C@@H](CCC(=O)O)C(=O)N[C@@H](CCC(=O)O)C(=O)N[C@@H](Cc1ccc(O)cc1)C(=O)N[C@@H](CC(C)C)C(=O)N[C@@H](CC(=O)O)C(=O)N[C@@H](CC(=O)O)C(=O)N[C@@H](CCC(=O)O)C(=O)N[C@@H](CO)C(=O)O
inhibition (Trypsin (Homo sapiens) [1]): 20% | inhibition [2]: < 5% | Activity (Homo sapiens [3]): Active | inhibition [4]: < 5% | Activity (Homo sapiens [5]): inactive | inhibition [6]: < 5% | inhibition [7]: < 5% | inhibition [8]: 20% | Activity (Homo sapiens [9]): Active | inhibition [10]: < 5% | inhibition [11]: < 5% | inhibition (Trypsin (Homo sapiens) [12]): < 5% | inhibition [13]: < 5% | Activity (Plasma): Dose-dependent effect | inhibition (Homo sapiens [14]): < 5% | inhibition [15]: < 5% | inhibition [16]: 20% | inhibition [17]: < 5% | inhibition [18]: < 5%

CC[C@H](C)[C@H](NC(=O)[C@H](C)NC(=O)[C@H](CCC(=O)O)NC(=O)[C@H](Cc1ccccc1)NC(=O)[C@H](CC(=O)O)NC(=O)[C@H](Cc1ccccc1)NC(=O)[C@@H]1CCCN1C(=O)[C@@H]1CCCN1C(=O)[C@H](C)NC(=O)[C@@H](NC(=O)[C@H](CCCCN)NC(=O)[C@H](Cc1cnc[nH]1)NC(=O)[C@H](CCSC)NC(=O)[C@H](CCCCN)NC(=O)[C@@H]1CCCN1C(=O)[C@@H](N)CCC(=O)O)[C@@H](C)O)C(=O)N1CCC[C@H]1C(=O)N[C@@H](CCC(=O)O)C(=O)N[C@@H](CCC(=O)O)C(=O)N[C@@H](Cc1ccc(O)cc1)C(=O)N[C@@H](CC(C)C)C(=O)N[C@@H](CC(=O)O)C(=O)N[C@@H](CC(=O)O)C(=O)N[C@@H](CCC(=O)O)C(=O)N[C@@H](CO)C(=O)O
Activity (Homo sapiens [3]): Active | Activity (Homo sapiens [5]): inactive | Activity (Plasma): Dose-dependent effect

Source: ChEMBL document CHEMBL1156495 (J Biol Chem, 2007)
